Tests used:
[1] = system: mouse serum albumin (MSA) in mouse blood plasma; assay: Ultrafiltration albumin-binding assay of 177Lu-DOTA-ALBs, mouse blood plasma
Description: (§1) The relative affinities of ^177Lu-labeled DOTA-ALBs (50 MBq/nmol) to albumin in mouse and human blood plasma were determined using an ultrafiltration assay according to a previously described procedure (Supplementary Materials Section S5). A dry chemistry analyzer (DRI-CHEM 4000i, FUJIFILM, Japan) was used to determine the mouse serum albumin concentration (conc. MSA: ~550 µM) in mouse blood plasma (Rockland Immunochemicals, Inc., Pottstown, PA, USA, Lot No. 23248) and the human serum albumin concentration (conc. HSA: ~800 µM) in human blood plasma of a healthy volunteer (Stiftung Blutspende SRK Aargau-Solothurn, Aarau, Switzerland). The albumin-bound fraction of the radioligands was determined at variable molar concentration ratios of serum albumin to the respective radiolabeled DOTA-ALB using a blood plasma/PBS dilution series and a constant amount of ^177Lu-DOTA-ALBs (0.5 MBq; 0.01 nmol). The free (albumin-unbound) radioligand fraction was separated from the albumin-bound fraction using Centrifree filter devices (cut-off 10 kDa; Merck Millipore, Carrigtwohill, Ireland) to enable the calculation of the percentage of albumin-bound radioligand. […] The results were presented as average ± standard deviation (SD) of 3 independent experiments. […]
(§2) S5. Relative Albumin-binding Properties of 177Lu-DOTA-ALBs
(§3) Purpose: The relative albumin-binding affinities of the 177Lu-DOTA-ALBs were in-vestigated using mouse and human blood plasma.
(§4) Methods: Relative binding affinities of 177Lu-DOTA-ALBs to mouse (MSA) and hu-man (HSA) serum albumin in the respective blood plasma were determined using an ul-trafiltration assay according to a previously described procedure. In brief, an average MSA concentration of ⁓550 µM was measured for mouse blood plasma (Rockland Immu-nochemicals, Inc., Pottstown, PA, USA, Lot N° 23248), while an HSA concentration of ⁓800 µM was determined for human blood plasma (Stiftung Blutspende SRK Aargau-Solothurn, Aarau, Switzerland) using a dry chemistry analyzer (DRI-CHEM 4000i, FUJI-FILM, Japan). A fixed amount of the respective 177Lu-DOTA-ALB (50 MBq/nmol:, ~500 kBq, 25 µL, 0.01 nmol) was added to a defined volume (250 µL) of mouse and human […]
(§5) and 0.01 to 20000, respectively. […]
(§6) off 10 kDa; Merck Millipore, Carrigtwohill, Ireland). The albumin-bound fractions at the […]
(§7) the half-maximum binding (B50). The relative albumin-binding affinities were defined as […]
(§8) sented as average ± SD of 3 independent experiments.
(§9) Results: The results are reported in the main article.
(§10) S6. Blood Clearance of 177Lu-DOTA-ALBs […]
(§11) their blood clearance profile.
(§12) Blood clearance of 177Lu-labeled DOTA-ALBs were determined in n=3–6 mice per radioligand. The radiolabeled DOTA-ALBs ( […]
(§13) various timepoints over the following 48 h. […]
(§14) up to 3 and 7 days, respectively. […]

[2] = system: human serum albumin (HSA) in human blood plasma; assay: Ultrafiltration albumin-binding assay of 177Lu-DOTA-ALBs, human blood plasma
Description: as §1, §2, §3, §4, §5, §6, §7, §8, §9, §10, §11, §12, §13, §14

[3] = n-octanol/PBS distribution coefficient (shake-flask) of 177Lu-DOTA-ALBs; type: physicochemical; settings: n-octanol/PBS pH 7.4
Description: The radiolabeling of DOTA-ALBs was carried out under standard labeling conditions at pH 4.5. The ligands (10−100 μM) were mixed with lutetium-177 (no-carrier added [^177Lu]LuCl3; in 0.04 M HCl; ITM GmbH Medical Isotopes, Munich, Germany) to reach molar activities of 25–50 MBq/nmol (Supplementary Materials Section S2). An analytical HPLC system equipped with a C18 column and a radioactivity detector was used for quality control of the radiolabeled DOTA-ALBs (Supplementary Materials Section S2). The ^177Lu-DOTA-ALBs were used for preclinical investigations without separation of the labeled from the unlabeled fraction. The radiolytic stability of the ^177Lu-DOTA-ALBs (50 MBq/nmol) diluted in phosphate-buffered saline (PBS; 100 MBq/500 μL) was assessed in vitro in the absence and presence of L-ascorbic acid (Supplementary Materials Section S3). The n-octanol/PBS distribution coefficients (logD values) were determined using a shake-flask method according to an established protocol (Supplementary Materials Section S4). The logD values were analyzed using a one-way ANOVA with Tukey’s multiple comparisons post-test using GraphPad Prism software (version 8). […]
Purpose: The n-octanol/PBS distribution coefficients (logD values) were determined for all 177Lu-DOTA-ALBs in order to assess their hydrophilic/hydrophobic properties.
Methods: The n-octanol/PBS distribution coefficients (logD values) of the 177Lu-DOTA-ALBs were determined as previously described. […]
The vials were vortexed vigorously for 1 min followed by centrifugation for 6 min at 560 rcf for phase separation. An aliquot was taken from each phase and measured in a γ-counter (Perkin Elmer, Wallac Wizard 1480, Waltham, MA, USA). The distribution coeffi-cients were calculated as the logarithm of the ratio of counts per minute (cpm) measured in the n-octanol phase relative to the cpm measured in the PBS phase. […]
Methods: Relative binding affinities of 177Lu-DOTA-ALBs to mouse (MSA) and hu-man (HSA) serum albumin in the respective blood plasma were determined using an ul-trafiltration assay according to a previously described procedure. […]

Compound: O=C(O)CN1CCN(CC(=O)O)CCN(CC(=O)NCCC(=O)N[C@@H](CCCCNC(=O)CCCc2ccc(I)cc2)C(=O)O)CCN(CC(=O)O)CC1.[177Lu] [[^177Lu]Lu-DOTA-ALB-1]
- Fold higher albumin-binding affinity than [177Lu]Lu-DOTA-ALB-24 [1]: ~ 3 fold
- Fold higher albumin-binding affinity than [177Lu]Lu-DOTA-ALB-24 [2]: ~ 10 fold

Compound: O=C(O)CN1CCN(CC(=O)O)CCN(CC(=O)NCCC(=O)N[C@@H](CCCCNC(=O)c2ccc(CNC(=O)CCCCc3ccc(I)cc3)cc2)C(=O)O)CCN(CC(=O)O)CC1.[177Lu] [[^177Lu]Lu-DOTA-ALB-25]
- Fold higher albumin-binding affinity than [177Lu]Lu-DOTA-ALB-24 [1]: ~ 5 fold
- logD value [3]: −2.39 ± 0.04
- Fold higher albumin-binding affinity than [177Lu]Lu-DOTA-ALB-24 [2]: ~ 3 fold

Compound: O=C(O)CN1CCN(CC(=O)O)CCN(CC(=O)NCCC(=O)N[C@@H](CCCCNC(=O)c2ccc(CNC(=O)CCCc3ccc(I)cc3)cc2)C(=O)O)CCN(CC(=O)O)CC1.[177Lu] [[^177Lu]Lu-DOTA-ALB-3]
- Fold increased albumin-binding affinity relative to [177Lu]Lu-DOTA-ALB-1 [1]: ~ 15 fold
- Fold stronger albumin-binding affinity than [177Lu]Lu-DOTA-ALB-25 [1]: ~ 10 fold
- logD value [3]: −2.64 ± 0.04
- Albumin-binding affinity relative to [177Lu]Lu-DOTA-ALB-1 [2]: almost no difference
- Fold stronger albumin-binding affinity than [177Lu]Lu-DOTA-ALB-25 [2]: ~ 4 fold

Compound: O=C(O)CN1CCN(CC(=O)O)CCN(CC(=O)NCCC(=O)N[C@@H](CCCCNC(=O)CCCCc2ccc(I)cc2)C(=O)O)CCN(CC(=O)O)CC1.[177Lu] [[^177Lu]Lu-DOTA-ALB-24]
- logD value [3]: −2.68 ± 0.06
